According to publication PMC10380810, “Nitazoxanide Inhibits the Bifunctional Enzyme GlG6PD::6PGL of Giardia lamblia: Biochemical and In Silico Characterization of a New Druggable Target” (International Journal of Molecular Sciences, 2023):

Target: T1, GlG6PD::6PGL (fused bifunctional glucose-6-phosphate dehydrogenase::6-phosphogluconolactonase) (Giardia duodenalis, UniProt A8BWM5)
T1 construct: gene GL50803_008682; recombinant fused GlG6PD::6PGL; activity of the G6PD domain measured
Experiment: residual G6PD activity at […] nm after […] h preincubation at […] °C with purified recombinant enzyme; k2 […] ^-1 s^-1; intrinsic and ANS fluorescence changes
Format: biochemical

T1 sequence (A8BWM5 entry or part of it): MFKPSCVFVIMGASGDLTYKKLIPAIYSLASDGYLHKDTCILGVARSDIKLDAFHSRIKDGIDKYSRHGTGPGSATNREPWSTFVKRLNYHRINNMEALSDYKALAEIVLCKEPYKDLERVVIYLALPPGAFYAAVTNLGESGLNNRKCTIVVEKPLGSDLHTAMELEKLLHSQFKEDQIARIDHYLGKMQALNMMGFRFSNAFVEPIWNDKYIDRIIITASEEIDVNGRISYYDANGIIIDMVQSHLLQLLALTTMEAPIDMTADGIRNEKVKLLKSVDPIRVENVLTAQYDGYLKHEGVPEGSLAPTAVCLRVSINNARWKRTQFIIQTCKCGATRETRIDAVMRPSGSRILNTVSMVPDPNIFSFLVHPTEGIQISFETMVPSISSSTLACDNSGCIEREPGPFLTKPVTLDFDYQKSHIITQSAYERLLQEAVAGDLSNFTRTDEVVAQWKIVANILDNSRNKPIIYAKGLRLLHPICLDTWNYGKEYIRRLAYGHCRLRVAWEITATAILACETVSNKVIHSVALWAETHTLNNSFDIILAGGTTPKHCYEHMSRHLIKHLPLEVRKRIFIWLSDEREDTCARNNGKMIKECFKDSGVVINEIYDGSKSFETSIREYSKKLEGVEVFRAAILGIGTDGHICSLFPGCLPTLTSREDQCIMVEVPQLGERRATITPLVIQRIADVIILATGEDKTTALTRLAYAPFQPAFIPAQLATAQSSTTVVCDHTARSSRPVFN

In the case of `CC(=O)Oc1ccccc1C(=O)Nc1ncc([N+](=O)[O-])s1` [NTZ, 2-acetyloloxy-N-(5-nitro-2thiazolyl)benzamide], the IC50 is reported as 40 µM.
